Laboratory results reported in patent US20250281610A1, “P2RY2 ACTIVITY MODULATORS” (Deutsches Krebsforschungszentrum Stiftung des öffentlichen …, priority 2022, published 2025).

Test system: CD33-specific CAR transduced T cells co-cultured with THP-1 cells
Experiment: T cell cytokine production in co-culture of CD33-specific CAR-T cells with THP-1 cells
Type: cell-based, human
Conditions: 5 μM AR-C
Description: FIG. 8. Effects of P2RY2 antagonist on T cells and cancer cells in T cell-cancer cell co-cultures. T cells transduced with CD33-specific CAR (CAR-T) were co-cultured with genetically edited THP-1 cells in the absence or presence of 5 μM AR-C 118925XX (AR-C) for 6-24 hours. Control cells: THP-1 cells transduced with non-targeting sgRNA and Cas9 (gNT); P2RY2 deficient cells: THP-1 cells transduced with P2RY2-targeting sgRNA and Cas9 (gP2RY2-3, gP2RY2-4); B7-H3 (CD276) deficient cells: THP-1 cells transduced with B7-H3-targeting sgRNA and Cas9 (gCD276-1); P2RY2 and B7-H3 double deficient cells: THP-1 cells transduced with P2RY2-targeting sgRNA, B7-H3-targeting sgRNA, and Cas9 (gCD276-1 gP2RY2-3 DKO, gCD276-1 gP2RY2-4 DKO); P2RY2 overexpression cells: THP-1 cells transduced with the open reading frame of P2RY2 (P2RY2-OE); B7-H3 overexpression cells: THP-1 cells transduced with the open reading frame of CD276 (CD276-OE). Transduced cancer cells were selected by antibiotics according to antibiotic resistance genes carried by the lentiviral constructs. Flow cytometry analysis of expression of production of IFNγ and TNFα within the CD3+CD8+ cell population is shown (values indicate the percentages of positive cells). For the viability of THP-1 cells, normalized cell counts of viable cells after co-culture with CD33-specific CAR-T cells is shown. The end-point cell counts were normalized to the number of THP-1 cells in cultures without T cells.
MART-1 specific T cells were generated as described (Mezzadra et al., Nature 549, 106-110 (2017); Jorritsma et al., Blood 110 (10): 3564-3572. (2007)). […]
The open reading frames of transcripts of P2RY2(ENST00000393597.7) or CD276(ENST00000318443.10), were ordered as a codon optimized gBlock Gene Fragment (Integrated DNA Technologies or Twist Bioscience) and cloned into a lentiviral vector containing a blasticidin selection cassette. […]
MART1-specific CD8+ T cells and MART1 epitope-expressing cancer cells were mixed at a ratio of 1:16 to 1:4. […] T cell activation was assessed by surface staining with anti-CD137-BV421 (4-1BB, Biolegend), anti-CD69-APC/Fire™ 750 (FN50, Biolegend), anti-CD25-AF700 (BC96, Biolegend) antibodies and intracellular staining with anti-IL-2-PE/Cy7 (MQ1-17H12, Biolegend), anti-IFN-7-BV421 (4S.B3, Biolegend), anti-TNF-α-BV785 (MAb11, Biolegend) antibodies, followed by flow cytometry analysis. […] The viability of cancer cells that grow in suspension including THP-1 cells was assessed by flow cytometry-based absolute cell counting using AccuCount beads (Spherotech). For adherent cancer cells including BxPC3 and MCF7, the cell viability was quantified using CellTiter-Blue Cell Viability Assay (Promega).

[1] = 6-24 hours, P2RY2 proficient THP-1 cells, CD3+CD8+ population (FIG. 8)
[2] = P2RY2 deficient THP-1 cells (FIG. 8)

Q: Which results are given for `Cc1ccc2c(c1)C=Cc1cc(C)ccc1C2c1cn(Cc2ccc(C(=O)Nc3nn[nH]n3)o2)c(=O)[nH]c1=S` [AR-C 118925XX]?
A: production of IFNγ by T cells [1]: increased; production of TNFα by T cells [1]: increased; production of IFNγ in T cell upon P2RY2 deletion [2]: does not influence; production of TNFα in T cell upon P2RY2 deletion [2]: does not influence
